According to the NIST ThermoML archive (doi:10.1016/j.fluid.2014.09.014):

Assay: refractive index (other wavelength) (dimensionless); xn = mol fraction of the nth substance listed
Conditions: 101 kPa, Liquid, Standard Abbe refractometry

CC(C)OC(C)C [diisopropyl ether] + CO
refractive index
Conditions | Wavelength=40.47 nm | Wavelength=435.8 nm | Wavelength=486.1 nm | Wavelength=546.1 nm | Wavelength=587.6 nm | Wavelength=589.3 nm | Wavelength=632.8 nm | Wavelength=644 nm | Wavelength=706.5 nm
293.15 K, x2 = 0 | 1.37888 | 1.37585 | 1.37241 | 1.36955 | 1.36806 | 1.36801 | 1.36674 | 1.36644 | 1.36501
293.15 K, x2 = 0.0423 | 1.37892 | 1.37589 | 1.37246 | 1.3696 | 1.36811 | 1.36806 | 1.36678 | 1.36648 | 1.36504
293.15 K, x2 = 0.0424 | 1.37884 | 1.37583 | 1.37238 | 1.36953 | 1.36803 | 1.36798 | 1.3667 | 1.3664 | 1.36476
293.15 K, x2 = 0.082 | 1.37887 | 1.37585 | 1.37242 | 1.36956 | 1.36807 | 1.36802 | 1.36674 | 1.36644 | 1.365
293.15 K, x2 = 0.0822 | 1.37872 | 1.37569 | 1.37228 | 1.36942 | 1.36795 | 1.36789 | 1.36663 | 1.36633 | 1.36487
293.15 K, x2 = 0.1171 | 1.37858 | 1.37556 | 1.37214 | 1.3693 | 1.36783 | 1.36777 | 1.36649 | 1.36619 | 1.36476
293.15 K, x2 = 0.1271 | 1.37862 | 1.3756 | 1.37217 | 1.36933 | 1.36784 | 1.36779 | 1.36651 | 1.36622 | 1.36479
293.15 K, x2 = 0.1827 | 1.37814 | 1.37514 | 1.37173 | 1.36889 | 1.36741 | 1.36736 | 1.36608 | 1.36579 | 1.36436
293.15 K, x2 = 0.2162 | 1.37791 | 1.37492 | 1.37149 | 1.36867 | 1.36719 | 1.36713 | 1.36585 | 1.36556 | 1.36414
293.15 K, x2 = 0.251 | 1.37812 | 1.37513 | 1.37172 | 1.36888 | 1.36741 | 1.36735 | 1.36609 | 1.36579 | 1.36436
293.15 K, x2 = 0.3298 | 1.37709 | 1.37411 | 1.37071 | 1.36792 | 1.36645 | 1.3664 | 1.36512 | 1.36482 | 1.3634
293.15 K, x2 = 0.3577 | 1.37556 | 1.37264 | 1.36925 | 1.36647 | 1.365 | 1.36494 | 1.36367 | 1.36338 | 1.36197
293.15 K, x2 = 0.4497 | 1.37463 | 1.3717 | 1.36834 | 1.36558 | 1.36412 | 1.36407 | 1.3628 | 1.36251 | 1.3611
293.15 K, x2 = 0.4525 | 1.37517 | 1.37223 | 1.36886 | 1.36609 | 1.36462 | 1.36457 | 1.3633 | 1.36301 | 1.3616
293.15 K, x2 = 0.522 | 1.37278 | 1.36987 | 1.36658 | 1.36382 | 1.36239 | 1.36233 | 1.36109 | – | 1.35939
293.15 K, x2 = 0.5543 | 1.37252 | 1.36963 | 1.36633 | 1.36357 | 1.36214 | 1.36209 | 1.36085 | 1.36055 | 1.35915
293.15 K, x2 = 0.609 | 1.36927 | 1.3664 | 1.36316 | 1.3644 | 1.35903 | 1.35897 | 1.35774 | 1.35745 | 1.35606
293.15 K, x2 = 0.6529 | 1.36767 | 1.36484 | 1.36161 | 1.35891 | 1.35751 | 1.35746 | 1.35624 | 1.35595 | 1.35456
293.15 K, x2 = 0.7504 | 1.36362 | 1.36086 | 1.35769 | 1.35503 | 1.35365 | 1.3536 | 1.3524 | 1.35211 | –
293.15 K, x2 = 0.804 | 1.35916 | 1.35647 | 1.35338 | 1.35075 | 1.34938 | 1.34933 | 1.34816 | 1.34788 | 1.34652
293.15 K, x2 = 0.807 | 1.35902 | 1.35632 | 1.35323 | 1.3506 | 1.34924 | 1.34919 | 1.34801 | 1.34773 | 1.34638
293.15 K, x2 = 0.8727 | 1.35351 | 1.35088 | 1.34784 | 1.34528 | 1.34394 | 1.34389 | 1.34273 | 1.34246 | 1.34113
293.15 K, x2 = 0.9233 | 1.34636 | 1.34384 | 1.34087 | 1.33839 | 1.33708 | 1.33703 | 1.3359 | 1.33564 | 1.33435
293.15 K, x2 = 0.9253 | 1.34824 | 1.34571 | 1.34275 | 1.34023 | 1.33891 | 1.33886 | 1.33772 | 1.33746 | 1.33617
293.15 K, x2 = 0.9527 | 1.34496 | 1.34296 | 1.33953 | 1.33705 | 1.33574 | 1.33569 | 1.33457 | 1.33431 | 1.33303
293.15 K, x2 = 0.9773 | 1.34138 | 1.33894 | 1.33601 | 1.33356 | 1.33228 | 1.33223 | 1.33112 | 1.33086 | 1.32963
293.15 K, x2 = 0.989 | 1.34018 | 1.33775 | 1.33487 | 1.33242 | 1.33114 | 1.3311 | 1.33 | 1.32975 | 1.32951
293.15 K, x2 = 0.9964 | 1.33872 | 1.33631 | 1.33342 | 1.33098 | 1.3297 | 1.32965 | 1.32856 | 1.32831 | 1.32708
298.15 K, x2 = 0 | 1.37607 | 1.37308 | 1.36965 | 1.36683 | 1.36535 | – | – | – | –
298.15 K, x2 = 0.0423 | 1.37664 | 1.37305 | 1.36963 | 1.36681 | 1.36534 | – | – | – | –
298.15 K, x2 = 0.0424 | 1.37602 | 1.37303 | 1.36961 | 1.36679 | 1.36531 | – | – | – | –
298.15 K, x2 = 0.082 | 1.37599 | 1.373 | 1.36958 | 1.36677 | 1.36528 | – | – | – | –
298.15 K, x2 = 0.0822 | 1.37598 | 1.373 | 1.36957 | 1.36678 | 1.3653 | – | – | – | –
298.15 K, x2 = 0.1171 | 1.3758 | 1.37283 | 1.36942 | 1.36661 | 1.36514 | – | – | – | –
298.15 K, x2 = 0.1271 | 1.37584 | 1.37286 | 1.36944 | 1.36664 | 1.36515 | – | – | – | –
298.15 K, x2 = 0.1827 | 1.37543 | 1.37246 | 1.36905 | 1.36626 | 1.36478 | – | – | – | –
298.15 K, x2 = 0.2162 | 1.37664 | 1.37305 | 1.36963 | 1.36681 | 1.36534 | – | – | – | –
298.15 K, x2 = 0.251 | 1.37352 | 1.37234 | 1.36895 | 1.36616 | 1.3647 | – | – | – | –
298.15 K, x2 = 0.3298 | 1.37448 | 1.37153 | 1.36815 | 1.36537 | 1.36391 | – | – | – | –
298.15 K, x2 = 0.3577 | 1.37299 | 1.37006 | 1.36672 | 1.36396 | 1.36251 | – | – | – | –
298.15 K, x2 = 0.4497 | 1.37205 | 1.36914 | 1.36584 | 1.36306 | 1.36163 | – | – | – | –
298.15 K, x2 = 0.4525 | 1.37262 | 1.36969 | 1.36637 | 1.3636 | – | – | – | – | –
298.15 K, x2 = 0.522 | 1.37025 | 1.36737 | 1.36409 | 1.36134 | – | – | – | – | –
298.15 K, x2 = 0.5543 | 1.3698 | 1.36692 | 1.36368 | 1.36093 | – | – | – | – | –
298.15 K, x2 = 0.609 | 1.36677 | 1.36396 | – | 1.35803 | – | – | – | – | –
298.15 K, x2 = 0.6529 | 1.36523 | 1.36244 | 1.35923 | 1.35655 | – | – | – | – | –
298.15 K, x2 = 0.7504 | 1.36122 | 1.35846 | 1.35533 | 1.3527 | – | – | – | – | –
298.15 K, x2 = 0.804 | 1.35681 | 1.35412 | 1.35108 | 1.34846 | – | – | – | – | –
298.15 K, x2 = 0.807 | 1.3567 | 1.35401 | 1.35096 | 1.34834 | – | – | – | – | –
298.15 K, x2 = 0.8727 | 1.35132 | 1.34872 | 1.34572 | 1.34316 | – | – | – | – | –
298.15 K, x2 = 0.9233 | 1.34416 | 1.34165 | 1.33873 | 1.33624 | – | – | – | – | –
298.15 K, x2 = 0.9253 | 1.34607 | 1.34355 | 1.3406 | 1.33811 | – | – | – | – | –
298.15 K, x2 = 0.9527 | 1.34281 | 1.34033 | 1.3374 | 1.33494 | – | – | – | – | –
298.15 K, x2 = 0.9773 | 1.33922 | 1.3368 | 1.3339 | 1.33146 | – | – | – | – | –
298.15 K, x2 = 0.989 | 1.33798 | 1.3356 | 1.3327 | 1.33028 | – | – | – | – | –
298.15 K, x2 = 0.9964 | 1.33656 | 1.3342 | 1.33128 | 1.32888 | – | – | – | – | –
